The text below walks through data of patent publication US20240156889A1, “A METHOD FOR REDUCING ANIMAL WEIGHT” (BEIJING WEHAND-BIO PHARMACEUTICAL CO., LTD, priority 2021, published 2024).

Molecules are shown by their SMILES.

A short description of the assay: Clinical Experiment 2: weight of type 2 diabetics, acarbose-controlled double-blind study. Format: in vivo, human. The note with it: SZ-A = tablets of Embodiment 1 extract, 50 mg total alkaloids each. The text has this: • 1. Objective • Effect of Ramulus Mori extract on reducing weight of diabetics. • 2. Experiment method • 2.1 Grouping • Random, double-blind and double-simulation, parallel control of acarbose tablets, multicenter, non-inferiority were adopted in the study design. A total of 600 patients with type 2 diabetes (aged 18 to 70 years old, 19 kg/m^2≤BMI≤30 kg/m^2, 7%≤HbAlC≤10%) and poor blood glucose control were included, and were randomly divided into a total alkaloid tablet group (SZ-A, N=360) and a acarbose (Glucobay®) group (CON, N=240). All signed informed consents. […] (1) From the Pt to the 24th week of administration, the height, weight and weight gain of each group were observed and recorded every day. […]

Take `C[C@H]1O[C@H](O[C@H]2[C@H](O)[C@@H](O)[C@@H](O[C@H]3[C@H](O)[C@@H](O)C(O)O[C@@H]3CO)O[C@@H]2CO)[C@H](O)[C@@H](O)[C@@H]1N[C@H]1C=C(CO)[C@@H](O)[C@H](O)[C@H]1O` (some centres unmarked) [acarbose]: the “average change of weight” value runs as follows: (type 2 diabetics with BMI≥28 kg/m^2, after 8 weeks of administration) 0.210 kg; (type 2 diabetics with BMI≥28 kg/m^2, after 24 weeks of administration) -0.182 kg.
